# Source: PMC12051620, “Molecular basis underlying the specificity of an antagonist AA92593 for mammalian melanopsins” (The Journal of Biological Chemistry, 2025)
# Molecular target: T1, mouse melanopsin (Mus musculus, UniProt Q9QXZ9)
# T1 construct: the C-terminal amino acid residues (94, 140, 200, 214, 296, and 308 residues); expressed in transfected cells; host or cells: COS-1
# Assay: GsX GloSensor assay with exogenous Gsα WT
# Assay type: cell-based
# Settings: 16.7 μM AA92593; COS-1 cells
# Excerpt: Previous studies of human and mouse melanopsins reported that these melanopsins can activate not only Gq but Gs and Gi ([20], [21], [22]). Thus, we assessed the effect of AA92593 on Gsα WT or Gsα/i11 (with 11 C-terminal sequence of Giα) using the GsX GloSensor assay. In agreement with the promiscuous G protein-coupling of melanopsins, we observed light-dependent increase of GloSensor luminescence in COS-1 cells expressing Gsα or Gsα/i11 with human/mouse melanopsins (Fig. 1, G–J).
# For GloSensor assay, opsins, GloSensor assay sensor (coded by pGlo-22F), and NanoBiT-tagged G proteins were transiently expressed in COS-1 cells (kindly provided from Dr David Farrens, Oregon Health and Science University) using PEI as described previously ([24], [52]). […] For GFP-fluorescence microscopy, a 35-mm cell culture dish (IWAKI) was transfected with 2 μg melanopsin-GFP plasmid and 8 μg PEI in 400 μl Opti-mem and 1.2 ml D-MEM. […]
# The transfected COS-1 cells were incubated at 37 °C, 5% CO2 for 2 days, and the medium was aspirated and exchanged with 50 μl of HBSS (145 mM NaCl, 10 mM D-glucose, 5 mM KCl, 1 mM MgCl2, 1.7 mM CaCl2, 1.5 mM NaHCO3, 10 mM Hepes, pH 7.4), containing 33.3, 20, 10, 2, 0.2, 0.02, 0.002, or 0 μM AA92593, 0.5% dimetyl sulfoxide (DMSO), and 4% (vol/vol) GloSensor cAMP reagent stock solution. […] Luminescence was measured using GM-2000 or GM-3510 microplate reader (Promega). […]
# T1 sequence (Q9QXZ9 1-381 limits assumed): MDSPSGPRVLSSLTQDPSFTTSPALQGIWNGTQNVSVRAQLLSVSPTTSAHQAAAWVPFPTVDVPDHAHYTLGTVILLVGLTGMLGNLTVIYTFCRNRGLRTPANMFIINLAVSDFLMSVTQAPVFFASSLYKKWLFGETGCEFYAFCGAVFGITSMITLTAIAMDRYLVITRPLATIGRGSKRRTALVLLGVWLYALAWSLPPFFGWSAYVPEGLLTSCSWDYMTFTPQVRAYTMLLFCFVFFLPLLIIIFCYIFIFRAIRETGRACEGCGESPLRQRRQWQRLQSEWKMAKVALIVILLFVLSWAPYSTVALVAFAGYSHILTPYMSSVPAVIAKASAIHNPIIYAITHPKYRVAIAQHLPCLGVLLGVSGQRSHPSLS
structure (smiles),measurement,value
COc1ccc(S(=O)(=O)N2CCCCC2)cc1C [AA92593],effect on melanopsin-induced cAMP responses via exogenous Gsα,can suppress
